Where a name gives a salt, the structure may show the parent alone.

The test system of this test is HCT116. Particulars: 72 h. The method, boiled down: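 Four-parameter Hill fits gave IC50 and maximal efficacy. The data were CellTiter-Glo luminescence readings in HCT116 cells, normalized so that vehicle was 0% and positive control was -100%, with pattern correction afterwards.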

On to `O=C(O)c1cc(/N=N/c2ccc(O)c(C(=O)O)c2)ccc1O` [Olsalazine sodium], for which the IC50 cell viability is, setting by setting: (ICRF193 0 nM) over 45.8 µM; (ICRF193 200 nM) over 45.8 µM.
As to `CN(CCOc1ccc(CC2SC(=O)NC2=O)cc1)c1ccccn1` (stereo not given) [Rosiglitazone], the IC50 cell viability (ICRF193 0 nM) was over 45.8 µM and the IC50 cell viability (ICRF193 200 nM) was over 45.8 µM.
`CCCCCCCC(=O)O` [Octanoic acid]: the IC50 cell viability was over 45.8 µM (ICRF193 0 nM) and over 45.8 µM (ICRF193 200 nM).
On to `C=C(C)CNc1ccc(C(C)C(=O)O)cc1` (racemic) [rac Alminoprofen], for which the IC50 cell viability is over 45.8 µM (ICRF193 0 nM) and over 45.8 µM (ICRF193 200 nM).
Take `Cc1cc(O)cc2c1O[C@](C)(CCC[C@H](C)CCC[C@H](C)CCCC(C)C)CC2` [D-delta-Tocopherol]: the IC50 cell viability by setting is: (ICRF193 0 nM) over 45.8 µM; (ICRF193 200 nM) over 45.8 µM.
For `CN1C[C@H](C(=O)N[C@]2(C)O[C@@]3(O)[C@@H]4CCCN4C(=O)[C@H](Cc4ccccc4)N3C2=O)C[C@@H]2c3cccc4[nH]cc(c34)C[C@H]21` [Dihydroergotamine], the IC50 cell viability reads like this: (ICRF193 0 nM) over 45.8 µM; (ICRF193 200 nM) over 45.8 µM.
On to `Cc1cc(C)c(NC(=O)CN(CC(=O)O)CC(=O)O)c(C)c1Br` [Mebrofenin], for which the IC50 cell viability is, setting by setting: (ICRF193 0 nM) over 45.8 µM; (ICRF193 200 nM) over 45.8 µM.
Take `CC1=C(C(=O)O)N2C(=O)[C@@H](NC(=O)[C@H](N)C3=CCC=CC3)[C@H]2SC1` [CEPHRADINE]: the IC50 cell viability runs as follows: (ICRF193 0 nM) over 45.8 µM; (ICRF193 200 nM) over 45.8 µM.
Turning to `O=C(O)COCCN1CCN(C(c2ccccc2)c2ccc(Cl)cc2)CC1` (stereo not given) [CETIRIZINE HYDROCHLORIDE], the IC50 cell viability (ICRF193 0 nM) was over 45.8 µM and the IC50 cell viability (ICRF193 200 nM) is over 45.8 µM.
Regarding `CCC(=O)O[C@]1(C(=O)SCF)[C@H](C)C[C@H]2[C@@H]3C[C@H](F)C4=CC(=O)C=C[C@]4(C)[C@@]3(F)[C@@H](O)C[C@@]21C` [Fluticasone propionate], the IC50 cell viability reads like this: (ICRF193 0 nM) over 45.8 µM; (ICRF193 200 nM) over 45.8 µM.
For the compound `C[C@]12CC[C@@H]3c4ccc(OC(=O)N(CCCl)CCCl)cc4CC[C@H]3[C@@H]1CC[C@@H]2O` [Estramustine], the IC50 cell viability was over 45.8 µM (ICRF193 0 nM) and over 45.8 µM (ICRF193 200 nM).
In the case of `CN1CCN(C2=Nc3ccccc3Oc3ccc(Cl)cc32)CC1` [Loxapine succinate], the IC50 cell viability by setting is: (ICRF193 0 nM) over 45.8 µM; (ICRF193 200 nM) over 45.8 µM.
Regarding `CNC1CCCN(c2c(F)cc3c(=O)c(C(=O)O)cn(C4CC4)c3c2OC)C1` (stereo not given) [Balofloxacin], the IC50 cell viability runs as follows: (ICRF193 0 nM) over 45.8 µM; (ICRF193 200 nM) over 45.8 µM.
With `C=C1/C(=C\C=C2/CCC[C@]3(C)[C@@H]([C@H](C)CCCC(C)(C)O)CC[C@@H]23)C[C@@H](O)C[C@@H]1O` [Calcitriol], the IC50 cell viability is, setting by setting: (ICRF193 0 nM) over 45.8 µM; (ICRF193 200 nM) over 45.8 µM.
The compound `CC(CN1c2ccccc2Sc2cccnc21)N(C)C` (stereo not given) [Isothipendyl hydrochloride] yielded an IC50 cell viability (ICRF193 0 nM) of over 45.8 µM and an IC50 cell viability (ICRF193 200 nM) of over 45.8 µM.
With `NC[C@@H]1O[C@H](O[C@H]2[C@@H](O)[C@H](O[C@@H]3[C@@H](O)[C@H](N)C[C@H](N)[C@H]3O[C@H]3O[C@H](CO)[C@@H](O)[C@H](O)[C@H]3N)O[C@@H]2CO)[C@H](N)[C@@H](O)[C@@H]1O` [PAROMOMYCIN SULFATE], the IC50 cell viability is, setting by setting: (ICRF193 0 nM) over 45.8 µM; (ICRF193 200 nM) over 45.8 µM.
Compound `CCC1(C)CC(=O)NC1=O` (stereo not given) [Ethosuximide] came in with an IC50 cell viability (ICRF193 0 nM) of over 45.8 µM and an IC50 cell viability (ICRF193 200 nM) of over 45.8 µM.
`CN1C(CCl)Nc2cc(Cl)c(S(N)(=O)=O)cc2S1(=O)=O` (stereo not given) [Methyclothiazide]: the IC50 cell viability was over 45.8 µM (ICRF193 0 nM) and over 45.8 µM (ICRF193 200 nM).
Regarding `C=CC[N+]1([C@H]2C[C@H]3[C@@H]4CC[C@H]5C[C@H](OC(C)=O)[C@@H](N6CCCCC6)C[C@]5(C)[C@H]4CC[C@]3(C)[C@H]2OC(=O)CC)CCCCC1` [Rapacuronium bromide], the IC50 cell viability is over 45.8 µM (ICRF193 0 nM) and over 45.8 µM (ICRF193 200 nM).
Regarding `CCCCCCCCCCC(CO)CCCCCCCC` (stereo not given) [2-Octyl-1-dodecanol], the IC50 cell viability is, setting by setting: (ICRF193 0 nM) over 45.8 µM; (ICRF193 200 nM) over 45.8 µM.
For `C[C@]12CC[C@H]3[C@@H](CCC4=CC(=O)CC[C@@H]43)[C@@H]1CC[C@@H]2OC(=O)CCc1ccccc1` [Nandrolone phenpropionate], the IC50 cell viability is, setting by setting: (ICRF193 0 nM) over 45.8 µM; (ICRF193 200 nM) over 45.8 µM.
For `CC(=O)Nc1c(I)c(C(=O)O)c(I)c(N(C)C(C)=O)c1I` [Metrizoate sodium], the IC50 cell viability reads like this: (ICRF193 0 nM) over 45.8 µM; (ICRF193 200 nM) over 45.8 µM.
Take `Cc1cc2nc3c(=O)[nH]c(=O)nc-3n(CC(O)C(O)C(O)COP(=O)(O)O)c2cc1C` (stereo not given) [RIBOFLAVIN 5-PHOSPHATE SODIUM]: the IC50 cell viability is, setting by setting: (ICRF193 0 nM) over 45.8 µM; (ICRF193 200 nM) over 45.8 µM.
Regarding `CCN(CC)CCNC(=O)c1cc(Cl)c(N)cc1OC` [Metoclopramide], the IC50 cell viability (ICRF193 0 nM) is over 45.8 µM and the IC50 cell viability (ICRF193 200 nM) was over 45.8 µM.
Take `Cn1cc(C2=C(c3cn(C4CCN(Cc5ccccn5)CC4)c4ccccc34)C(=O)NC2=O)c2ccccc21` [Enzastaurin]: the IC50 cell viability by setting is: (ICRF193 0 nM) over 45.8 µM; (ICRF193 200 nM) over 45.8 µM.
Regarding `Cc1ccccc1C(=O)N1CC/C(=N\OS(=O)(=O)O)c2ccc(Cl)cc21` [Alilusem potassium], the IC50 cell viability is over 45.8 µM (ICRF193 0 nM) and over 45.8 µM (ICRF193 200 nM).
`CC1(C)O[C@@H]2C[C@H]3[C@@H]4CCC5=CC(=O)C=C[C@]5(C)[C@H]4[C@@H](O)C[C@]3(C)[C@]2(C(=O)CO)O1` [Desonide] displayed an IC50 cell viability (ICRF193 0 nM) of over 45.8 µM and an IC50 cell viability (ICRF193 200 nM) of over 45.8 µM.
In turn, `CCCCCCO[C@@H](C)c1cccc(-c2csc(NC(=O)c3cc(Cl)c(/C=C(\C)C(=O)O)c(Cl)c3)n2)c1OC` [Lusutrombopag] gave an IC50 cell viability (ICRF193 0 nM) of over 45.8 µM and an IC50 cell viability (ICRF193 200 nM) of over 45.8 µM.
For the compound `N#Cc1ccc(C(c2ccc(C#N)cc2)n2cncn2)cc1` [Letrozole], the IC50 cell viability was over 45.8 µM (ICRF193 0 nM) and over 45.8 µM (ICRF193 200 nM).
Compound `C[C@@H]1C[C@H]2[C@@H]3CCC4=CC(=O)C=C[C@]4(C)[C@@]3(F)[C@@H](O)C[C@]2(C)[C@@]1(O)C(=O)COP(=O)(O)O` [Dexamethasone 21-phosphate disodium salt] returned an IC50 cell viability (ICRF193 0 nM) of over 45.8 µM and an IC50 cell viability (ICRF193 200 nM) of over 45.8 µM.
Turning to `c1ccc2ccccc2c1` [NAPHTHALENE, ZONE REFINED], the IC50 cell viability was over 45.8 µM (ICRF193 0 nM) and over 45.8 µM (ICRF193 200 nM).
In the case of `CC[C@@H](CO)NCCN[C@@H](CC)CO` [Ethambutol dihydrochloride], the IC50 cell viability (ICRF193 0 nM) is over 45.8 µM and the IC50 cell viability (ICRF193 200 nM) was over 45.8 µM.
On to `CC(=O)N[C@@H](Cc1ccc(O)cc1)C(=O)O` [N-Acetyl-L-tyrosine], for which the IC50 cell viability is, setting by setting: (ICRF193 0 nM) over 45.8 µM; (ICRF193 200 nM) over 45.8 µM.
Consider `O=C(CCc1ccc(O)cc1)c1c(O)cc(O)cc1O[C@@H]1O[C@H](CO)[C@@H](O)[C@H](O)[C@H]1O` [Phlorizin], for which the IC50 cell viability (ICRF193 0 nM) is over 45.8 µM and the IC50 cell viability (ICRF193 200 nM) is over 45.8 µM.
On to `CC1(C)S[C@@H]2[C@H](NC(=O)[C@H](NC(=O)N3CCNC3=O)c3ccccc3)C(=O)N2[C@H]1C(=O)O` [AZLOCILLIN SODIUM], for which the IC50 cell viability is over 45.8 µM (ICRF193 0 nM) and over 45.8 µM (ICRF193 200 nM).
Take `O=C(Nc1ccc(Br)cc1)c1cc(Br)cc(Br)c1O` [Tribromsalan]: the IC50 cell viability is over 45.8 µM (ICRF193 0 nM) and over 45.8 µM (ICRF193 200 nM).
As to `CN(C)CCc1c[nH]c2ccc(Cn3cncn3)cc12` [Rizatriptan Benzoate], the IC50 cell viability was over 45.8 µM (ICRF193 0 nM) and over 45.8 µM (ICRF193 200 nM).
Take `CC(CC(C#N)(c1ccccc1)C(C)C)N(C)C` (stereo not given) [Isoaminile]: the IC50 cell viability was over 45.8 µM (ICRF193 0 nM) and over 45.8 µM (ICRF193 200 nM).
With `CCOC(=O)OCC/C(SC(=O)OCC)=C(\C)N(C=O)Cc1cnc(C)nc1N` [Dicethiamine hydrochloride], the IC50 cell viability (ICRF193 0 nM) was over 45.8 µM and the IC50 cell viability (ICRF193 200 nM) is over 45.8 µM.
`NCC(CC(=O)O)c1ccc(Cl)cc1` (stereo not given) [Baclofen] displayed an IC50 cell viability (ICRF193 0 nM) of over 45.8 µM and an IC50 cell viability (ICRF193 200 nM) of over 45.8 µM.
As to `CCN1C(=O)NC(c2ccccc2)C1=O` (stereo not given) [Ethotoin], the IC50 cell viability runs as follows: (ICRF193 0 nM) over 45.8 µM; (ICRF193 200 nM) over 45.8 µM.
With `COC(=O)[C@H]1[C@H]2C[C@@H]3c4[nH]c5cc(OC)ccc5c4CCN3C[C@H]2C[C@@H](OC(=O)/C=C/c2cc(OC)c(OC)c(OC)c2)[C@@H]1OC` [Rescinnamin], the IC50 cell viability is over 45.8 µM (ICRF193 0 nM) and over 45.8 µM (ICRF193 200 nM).
For `OCC(CO)N[C@H]1C[C@](O)(CO)[C@@H](O)[C@H](O)[C@H]1O` [Voglibose], the IC50 cell viability by setting is: (ICRF193 0 nM) over 45.8 µM; (ICRF193 200 nM) over 45.8 µM.
Consider `OC(c1ccccc1)(c1ccccc1)C12CC[N+](CCOCc3ccccc3)(CC1)CC2` [Umeclidinium bromide], for which the IC50 cell viability is over 45.8 µM (ICRF193 0 nM) and over 45.8 µM (ICRF193 200 nM).
On to `CCCCC1=NC2(CCCC2)C(=O)N1Cc1ccc(-c2ccccc2-c2nnn[nH]2)cc1` [Irbesartan], for which the IC50 cell viability was over 45.8 µM (ICRF193 0 nM) and over 45.8 µM (ICRF193 200 nM).
`CN(C)CCOC1=Cc2ccccc2Sc2ccc(Cl)cc21` [Zotepine]: the IC50 cell viability was over 45.8 µM (ICRF193 0 nM) and over 45.8 µM (ICRF193 200 nM).
Regarding `CC1(C)CCC(CN2CCN(c3ccc(C(=O)NS(=O)(=O)c4ccc(NCC5CCOCC5)c([N+](=O)[O-])c4)c(Oc4cnc5[nH]ccc5c4)c3)CC2)=C(c2ccc(Cl)cc2)C1` [Venetoclax (ABT-199)], the IC50 cell viability (ICRF193 0 nM) was over 45.8 µM and the IC50 cell viability (ICRF193 200 nM) is over 45.8 µM.
Compound `CO/N=C(/C(=O)N[C@@H]1C(=O)N2C(C(=O)OCOC(=O)C(C)(C)C)=C(C)CS[C@H]12)c1csc(N)n1` [Cefetamet pivoxil HCl] returned an IC50 cell viability (ICRF193 0 nM) of over 45.8 µM and an IC50 cell viability (ICRF193 200 nM) of over 45.8 µM.
Consider `CCn1ccc(NS(=O)(=O)c2ccc(N)cc2)nc1=O` [Sulfacytine], for which the IC50 cell viability (ICRF193 0 nM) is over 45.8 µM and the IC50 cell viability (ICRF193 200 nM) was over 45.8 µM.
For `CN1[C@@H]2CC[C@H]1C[C@@H](OC(=O)[C@H](CO)c1ccccc1)C2` [HYOSCYAMINE], the IC50 cell viability by setting is: (ICRF193 0 nM) over 45.8 µM; (ICRF193 200 nM) over 45.8 µM.

For the origin of these results see the supplement of paper PMC12137928.
